# Activity calls are given as the source filed them. How the calls were made is not given here.
# Test system: CCRIS mutagenicity, Ames/micronucleus/aberration tests
# Experiment: CCRIS mutagenicity studies
# [1] = Test System: AMES SALMONELLA TYPHIMURIUM, Strain/Indicator: TA98, Metabolic Activation: NONE, Method: PREINCUBATION
# [2] = Test System: AMES SALMONELLA TYPHIMURIUM, Strain/Indicator: TA100, Metabolic Activation: NONE, Method: PREINCUBATION
# [3] = Test System: AMES SALMONELLA TYPHIMURIUM, Strain/Indicator: TA102, Metabolic Activation: NONE, Method: PREINCUBATION
# [4] = Test System: AMES SALMONELLA TYPHIMURIUM, Strain/Indicator: TA104, Metabolic Activation: NONE, Method: PREINCUBATION
# [5] = Test System: AMES SALMONELLA TYPHIMURIUM, Strain/Indicator: TA100, Metabolic Activation: NONE, Method: STANDARD PLATE
# [6] = Test System: AMES SALMONELLA TYPHIMURIUM, Strain/Indicator: TA100, Metabolic Activation: RAT, LIVER, S-9, AROCLOR 1254, Method: STANDARD PLATE
# [7] = Test System: AMES SALMONELLA TYPHIMURIUM, Strain/Indicator: TA98, Metabolic Activation: NONE, Method: STANDARD PLATE
compound,measurement,setting,value
CCOCCCl,mutagenic call,[1],inactive; negative
same,mutagenic call,"Test System: AMES SALMONELLA TYPHIMURIUM, Strain/Indicator: TA98, Metabolic Activation: RAT, LIVER, S-9, PHENOBARBITAL AND BETA-NAPHTHOFLAVONE, Method: PREINCUBATION",inactive; negative
same,mutagenic call,[2],inactive; negative
same,mutagenic call,"Test System: AMES SALMONELLA TYPHIMURIUM, Strain/Indicator: TA100, Metabolic Activation: RAT, LIVER, S-9, PHENOBARBITAL AND BETA-NAPHTHOFLAVONE, Method: PREINCUBATION",inactive; negative
same,mutagenic call,[3],inactive; negative
same,mutagenic call,"Test System: AMES SALMONELLA TYPHIMURIUM, Strain/Indicator: TA102, Metabolic Activation: RAT, LIVER, S-9, PHENOBARBITAL AND BETA-NAPHTHOFLAVONE, Method: PREINCUBATION",inactive; negative
same,mutagenic call,[4],active; positive
same,mutagenic call,"Test System: AMES SALMONELLA TYPHIMURIUM, Strain/Indicator: TA104, Metabolic Activation: RAT, LIVER, S-9, PHENOBARBITAL AND BETA-NAPHTHOFLAVONE, Method: PREINCUBATION",inactive; negative
same,mutagenic call,"Test System: AMES SALMONELLA TYPHIMURIUM, Strain/Indicator: TA1535, Metabolic Activation: NONE, Method: PREINCUBATION",inactive; negative
same,mutagenic call,"Test System: AMES SALMONELLA TYPHIMURIUM, Strain/Indicator: TA1535, Metabolic Activation: RAT, LIVER, S-9, PHENOBARBITAL AND BETA-NAPHTHOFLAVONE, Method: PREINCUBATION",inactive; negative
same,mutagenic call,"Test System: AMES SALMONELLA TYPHIMURIUM, Strain/Indicator: TA1537, Metabolic Activation: NONE, Method: PREINCUBATION",inactive; negative
same,mutagenic call,"Test System: AMES SALMONELLA TYPHIMURIUM, Strain/Indicator: TA1537, Metabolic Activation: RAT, LIVER, S-9, PHENOBARBITAL AND BETA-NAPHTHOFLAVONE, Method: PREINCUBATION",inactive; negative
same,mutagenic call,"Test System: E. COLI, Strain/Indicator: WP2UVRA/PKM101, Metabolic Activation: NONE, Method: PREINCUBATION",inactive; negative
same,mutagenic call,"Test System: E. COLI, Strain/Indicator: WP2UVRA/PKM101, Metabolic Activation: RAT, LIVER, S-9, PHENOBARBITAL AND BETA-NAPHTHOFLAVONE, Method: PREINCUBATION",inactive; negative
same,mutagenic call,"Test System: E. COLI, Strain/Indicator: WP2UVRA, Metabolic Activation: NONE, Method: PREINCUBATION",inactive; negative
same,mutagenic call,"Test System: E. COLI, Strain/Indicator: WP2UVRA, Metabolic Activation: RAT, LIVER, S-9, PHENOBARBITAL AND BETA-NAPHTHOFLAVONE, Method: PREINCUBATION",inactive; negative
N#CC1=C(C#N)C(=O)C(Cl)=C(Cl)C1=O,mutagenic call,[1],inactive; negative
same,mutagenic call,"Test System: AMES SALMONELLA TYPHIMURIUM, Strain/Indicator: TA98, Metabolic Activation: RAT, LIVER, S-9, PHENOBARBITAL AND 5,6-BENZOFLAVONE, Method: PREINCUBATION",inactive; negative
same,mutagenic call,[2],inactive; negative
same,mutagenic call,[3],inactive; negative
same,mutagenic call,"Test System: AMES SALMONELLA TYPHIMURIUM, Strain/Indicator: TA102, Metabolic Activation: RAT, LIVER, S-9, PHENOBARBITAL AND 5,6-BENZOFLAVONE, Method: PREINCUBATION",inactive; negative
same,mutagenic call,[4],active; positive
same,mutagenic call,"Test System: AMES SALMONELLA TYPHIMURIUM, Strain/Indicator: TA104, Metabolic Activation: RAT, LIVER, S-9, PHENOBARBITAL AND 5,6-BENZOFLAVONE, Method: PREINCUBATION",active; positive
same,mutagenic call,"Test System: AMES SALMONELLA TYPHIMURIUM, Strain/Indicator: TA2637, Metabolic Activation: NONE, Method: PREINCUBATION",inactive; negative
same,mutagenic call,"Test System: AMES SALMONELLA TYPHIMURIUM, Strain/Indicator: TA2637, Metabolic Activation: RAT, LIVER, S-9, PHENOBARBITAL AND 5,6-BENZOFLAVONE, Method: PREINCUBATION",active; positive
Cn1ccc2ccc3ccc4ccc(O)cc4c3c21,mutagenic call,"Test System: AMES SALMONELLA TYPHIMURIUM, Strain/Indicator: TA98, Metabolic Activation: RAT, LIVER, S-9, AROCLOR, Method: STANDARD PLATE",active; positive
COc1cc2c(c3oc(=O)c4c(c13)CC[C@H]4O)[C@@H]1C=CO[C@@H]1O2,mutagenic call,[5],inactive; negative
same,mutagenic call,[6],active; positive
C=C(C#N)C(=O)OCC(C)C,mutagenic call,[5],inactive; negative
same,mutagenic call,[6],inactive; negative
O=C(/C=C/c1ccc(Oc2ccccc2)cc1)c1ccccc1,mutagenic call,[7],inactive; negative
same,mutagenic call,"Test System: AMES SALMONELLA TYPHIMURIUM, Strain/Indicator: TA98, Metabolic Activation: RAT, LIVER, S-9, AROCLOR 1254, Method: STANDARD PLATE",inactive; negative
same,mutagenic call,[5],inactive; negative
same,mutagenic call,[6],inactive; negative
Cc1ccc2c(=O)c3cccc4ccc1c2c43,mutagenic call,[6],active; positive
c1ccc2c(c1)CC[C@H]1CCC[C@@H]3O[C@]213,mutagenic call,[7],inactive; negative
same,mutagenic call,[5],inactive; negative
C[C@H](CCN=[N+]=[N-])c1ccccc1,mutagenic call,"Test System: AMES SALMONELLA TYPHIMURIUM, Strain/Indicator: TA100, Metabolic Activation: RAT, LIVER, S-9, PCB, Method: PREINCUBATION",active; positive
